Experimental data taken from the kinase profiling compilation of Christmann-Franck et al. (2016).

Key:
Test in all cases: radiometric filter-binding kinase assay, Kinase HotSpot
Settings in all cases: compound 0.5 µM; ATP 10 µM
MAP3K7 TAB1 (human) = MAP3K7 TAB1 (human) (UniProt O43318+Q15750)
CDK1 CCNB1 (human) = CDK1 CCNB1 (human) (UniProt P06493+P14635)
PAK7 (human) = PAK7 (human) (UniProt Q9P286)
WEE1 (human) = WEE1 (human) (UniProt P30291)
CAMK2B (human) = CAMK2B (human) (UniProt Q13554)
PRKD3 (human) = PRKD3 (human) (UniProt O94806)
MAP3K2 (human) = MAP3K2 (human) (UniProt Q9Y2U5)
MAP3K14 (human) = MAP3K14 (human) (UniProt Q99558)
AURKB (human) = AURKB (human) (UniProt Q96GD4)
Chain of AURKB (human) (Q96GD4 whole entry, looked up): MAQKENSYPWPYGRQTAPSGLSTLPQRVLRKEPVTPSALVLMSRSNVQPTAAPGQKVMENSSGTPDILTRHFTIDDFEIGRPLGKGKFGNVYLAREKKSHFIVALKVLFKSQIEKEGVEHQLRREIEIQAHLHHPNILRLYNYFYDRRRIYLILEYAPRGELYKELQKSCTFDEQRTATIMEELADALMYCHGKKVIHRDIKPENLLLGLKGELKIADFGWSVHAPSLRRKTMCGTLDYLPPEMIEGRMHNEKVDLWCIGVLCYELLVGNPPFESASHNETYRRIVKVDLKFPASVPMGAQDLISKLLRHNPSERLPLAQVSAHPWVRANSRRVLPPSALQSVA

DYRK1B (human) = DYRK1B (human) (UniProt Q9Y463)
ZAP70 (human) = ZAP70 (human) (UniProt P43403)
Chain of ZAP70 (human) (P43403 whole entry, looked up): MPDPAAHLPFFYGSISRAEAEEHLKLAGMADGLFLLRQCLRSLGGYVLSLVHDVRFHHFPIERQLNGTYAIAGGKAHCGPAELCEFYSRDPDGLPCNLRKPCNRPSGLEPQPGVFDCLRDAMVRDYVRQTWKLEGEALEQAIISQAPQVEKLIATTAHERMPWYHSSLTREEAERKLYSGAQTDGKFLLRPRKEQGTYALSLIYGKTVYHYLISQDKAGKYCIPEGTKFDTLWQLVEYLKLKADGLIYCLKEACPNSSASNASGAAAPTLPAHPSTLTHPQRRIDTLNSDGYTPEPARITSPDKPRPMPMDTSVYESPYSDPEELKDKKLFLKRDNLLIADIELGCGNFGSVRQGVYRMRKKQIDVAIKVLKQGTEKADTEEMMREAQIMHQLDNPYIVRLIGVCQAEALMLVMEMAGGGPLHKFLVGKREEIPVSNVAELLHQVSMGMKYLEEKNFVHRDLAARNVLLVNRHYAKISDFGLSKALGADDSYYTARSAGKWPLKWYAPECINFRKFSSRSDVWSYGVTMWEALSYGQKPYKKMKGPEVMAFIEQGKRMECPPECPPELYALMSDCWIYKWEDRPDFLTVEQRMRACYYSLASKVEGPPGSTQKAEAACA

CDK9 CCNK (human) = CDK9 CCNK (human) (UniProt O75909+P50750)
PDGFRA (human) = PDGFRA (human) (UniProt P16234)
EPHA2 (human) = EPHA2 (human) (UniProt P29317)
MAP3K11 (human) = MAP3K11 (human) (UniProt Q16584)
PDPK1 (human) = PDPK1 (human) (UniProt O15530)
Chain of PDPK1 (human) (O15530 whole entry, looked up): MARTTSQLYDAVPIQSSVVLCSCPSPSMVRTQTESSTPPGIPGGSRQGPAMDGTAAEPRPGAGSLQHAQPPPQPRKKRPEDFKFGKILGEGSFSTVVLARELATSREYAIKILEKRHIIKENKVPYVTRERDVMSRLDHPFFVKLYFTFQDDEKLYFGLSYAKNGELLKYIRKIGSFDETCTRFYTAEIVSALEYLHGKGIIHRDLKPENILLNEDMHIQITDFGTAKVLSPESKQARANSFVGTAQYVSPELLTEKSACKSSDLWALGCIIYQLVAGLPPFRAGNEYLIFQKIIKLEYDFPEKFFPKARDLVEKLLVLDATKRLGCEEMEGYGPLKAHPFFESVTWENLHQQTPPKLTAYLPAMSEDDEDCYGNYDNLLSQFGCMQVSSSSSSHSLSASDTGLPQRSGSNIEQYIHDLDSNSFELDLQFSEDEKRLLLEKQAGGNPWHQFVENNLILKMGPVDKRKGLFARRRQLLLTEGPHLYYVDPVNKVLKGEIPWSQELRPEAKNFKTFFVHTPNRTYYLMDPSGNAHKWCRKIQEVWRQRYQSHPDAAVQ

TEK (human) = TEK (human) (UniProt Q02763)
Chain of TEK (human) (Q02763 whole entry, looked up): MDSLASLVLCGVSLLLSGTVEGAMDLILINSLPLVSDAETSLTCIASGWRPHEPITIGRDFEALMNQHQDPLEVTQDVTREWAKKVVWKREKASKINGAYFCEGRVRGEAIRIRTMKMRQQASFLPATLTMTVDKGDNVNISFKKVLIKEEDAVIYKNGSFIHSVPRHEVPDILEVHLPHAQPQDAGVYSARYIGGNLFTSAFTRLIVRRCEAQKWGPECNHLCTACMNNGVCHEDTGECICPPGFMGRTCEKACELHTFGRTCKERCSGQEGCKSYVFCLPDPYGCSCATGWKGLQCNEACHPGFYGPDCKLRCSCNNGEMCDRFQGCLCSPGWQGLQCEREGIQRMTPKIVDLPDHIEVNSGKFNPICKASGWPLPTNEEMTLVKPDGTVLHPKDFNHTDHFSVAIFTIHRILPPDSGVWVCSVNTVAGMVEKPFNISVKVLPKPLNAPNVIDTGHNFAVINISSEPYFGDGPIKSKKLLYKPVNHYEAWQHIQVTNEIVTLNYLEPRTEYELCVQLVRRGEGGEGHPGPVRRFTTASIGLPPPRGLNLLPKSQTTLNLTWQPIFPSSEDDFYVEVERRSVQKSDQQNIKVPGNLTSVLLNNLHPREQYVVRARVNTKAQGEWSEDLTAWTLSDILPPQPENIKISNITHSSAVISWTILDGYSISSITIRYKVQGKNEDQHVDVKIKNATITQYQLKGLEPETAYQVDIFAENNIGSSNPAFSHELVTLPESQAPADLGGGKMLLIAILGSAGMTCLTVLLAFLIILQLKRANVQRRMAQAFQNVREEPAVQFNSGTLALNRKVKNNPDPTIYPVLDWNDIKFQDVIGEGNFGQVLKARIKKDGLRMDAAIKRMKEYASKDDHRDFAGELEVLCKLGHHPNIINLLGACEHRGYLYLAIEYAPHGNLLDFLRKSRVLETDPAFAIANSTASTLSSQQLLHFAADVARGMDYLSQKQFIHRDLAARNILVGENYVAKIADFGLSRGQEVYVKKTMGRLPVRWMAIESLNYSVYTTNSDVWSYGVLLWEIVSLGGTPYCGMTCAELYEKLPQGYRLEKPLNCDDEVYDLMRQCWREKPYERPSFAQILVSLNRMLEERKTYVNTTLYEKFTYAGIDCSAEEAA

AKT2 (human) = AKT2 (human) (UniProt P31751)
PRKG2 (human) = PRKG2 (human) (UniProt Q13237)
Chain of PRKG2 (human) (Q13237 whole entry, looked up): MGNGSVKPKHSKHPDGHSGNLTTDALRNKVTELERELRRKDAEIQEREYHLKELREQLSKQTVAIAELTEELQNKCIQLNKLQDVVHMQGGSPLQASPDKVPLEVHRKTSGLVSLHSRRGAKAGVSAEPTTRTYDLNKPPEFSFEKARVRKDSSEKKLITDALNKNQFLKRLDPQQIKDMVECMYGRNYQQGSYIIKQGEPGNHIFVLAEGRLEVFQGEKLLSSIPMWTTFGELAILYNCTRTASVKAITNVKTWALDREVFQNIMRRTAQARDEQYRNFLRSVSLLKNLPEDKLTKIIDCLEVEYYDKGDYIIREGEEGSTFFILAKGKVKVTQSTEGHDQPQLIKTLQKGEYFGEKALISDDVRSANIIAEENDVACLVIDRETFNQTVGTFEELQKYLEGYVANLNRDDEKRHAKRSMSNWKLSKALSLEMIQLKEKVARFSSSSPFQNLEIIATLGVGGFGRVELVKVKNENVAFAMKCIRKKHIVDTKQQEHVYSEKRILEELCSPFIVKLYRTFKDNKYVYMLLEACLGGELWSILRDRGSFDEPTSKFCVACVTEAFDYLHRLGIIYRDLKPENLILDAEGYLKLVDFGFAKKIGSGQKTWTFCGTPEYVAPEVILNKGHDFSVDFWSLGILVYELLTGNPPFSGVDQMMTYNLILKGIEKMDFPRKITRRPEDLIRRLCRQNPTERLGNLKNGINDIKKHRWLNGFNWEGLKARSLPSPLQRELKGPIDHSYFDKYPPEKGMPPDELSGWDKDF

PRKCZ (human) = PRKCZ (human) (UniProt Q05513)
MAP3K3 (human) = MAP3K3 (human) (UniProt Q99759)
CAMK1 (human) = CAMK1 (human) (UniProt Q14012)
CAMK2D (human) = CAMK2D (human) (UniProt Q13557)
CSK (human) = CSK (human) (UniProt P41240)
SYK (human) = SYK (human) (UniProt P43405)
ERBB4 (human) = ERBB4 (human) (UniProt Q15303)
SRMS (human) = SRMS (human) (UniProt Q9H3Y6)
IKBKE (human) = IKBKE (human) (UniProt Q14164)
STK4 (human) = STK4 (human) (UniProt Q13043)
RAF1 (human) = RAF1 (human) (UniProt P04049)
CSNK2A1 (human) = CSNK2A1 (human) (UniProt P68400)
PRKCB1 (human) = PRKCB1 (human) (UniProt P05771)
AURKC (human) = AURKC (human) (UniProt Q9UQB9)
Chain of AURKC (human) (Q9UQB9 whole entry, looked up): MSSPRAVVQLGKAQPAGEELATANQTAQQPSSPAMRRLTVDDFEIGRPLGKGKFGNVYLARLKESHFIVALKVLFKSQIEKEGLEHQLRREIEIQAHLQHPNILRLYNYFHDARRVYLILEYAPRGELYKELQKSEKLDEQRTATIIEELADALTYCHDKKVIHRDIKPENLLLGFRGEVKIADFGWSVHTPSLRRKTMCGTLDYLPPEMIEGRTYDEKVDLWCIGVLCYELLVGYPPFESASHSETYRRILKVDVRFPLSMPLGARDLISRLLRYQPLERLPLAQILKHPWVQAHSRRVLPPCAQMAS

CAMK1G (human) = CAMK1G (human) (UniProt Q96NX5)
STK16 (human) = STK16 (human) (UniProt O75716)
Chain of STK16 (human) (O75716 whole entry, looked up): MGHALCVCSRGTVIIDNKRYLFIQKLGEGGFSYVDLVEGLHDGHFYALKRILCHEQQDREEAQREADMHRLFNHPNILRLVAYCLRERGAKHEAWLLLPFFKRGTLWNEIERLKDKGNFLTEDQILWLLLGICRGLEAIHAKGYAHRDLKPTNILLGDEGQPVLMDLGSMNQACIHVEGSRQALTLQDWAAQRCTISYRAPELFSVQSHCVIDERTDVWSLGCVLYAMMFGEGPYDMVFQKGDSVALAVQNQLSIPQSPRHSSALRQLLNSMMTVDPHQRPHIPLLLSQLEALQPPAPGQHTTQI

STK10 (human) = STK10 (human) (UniProt O94804)
Chain of STK10 (human) (O94804 whole entry, looked up): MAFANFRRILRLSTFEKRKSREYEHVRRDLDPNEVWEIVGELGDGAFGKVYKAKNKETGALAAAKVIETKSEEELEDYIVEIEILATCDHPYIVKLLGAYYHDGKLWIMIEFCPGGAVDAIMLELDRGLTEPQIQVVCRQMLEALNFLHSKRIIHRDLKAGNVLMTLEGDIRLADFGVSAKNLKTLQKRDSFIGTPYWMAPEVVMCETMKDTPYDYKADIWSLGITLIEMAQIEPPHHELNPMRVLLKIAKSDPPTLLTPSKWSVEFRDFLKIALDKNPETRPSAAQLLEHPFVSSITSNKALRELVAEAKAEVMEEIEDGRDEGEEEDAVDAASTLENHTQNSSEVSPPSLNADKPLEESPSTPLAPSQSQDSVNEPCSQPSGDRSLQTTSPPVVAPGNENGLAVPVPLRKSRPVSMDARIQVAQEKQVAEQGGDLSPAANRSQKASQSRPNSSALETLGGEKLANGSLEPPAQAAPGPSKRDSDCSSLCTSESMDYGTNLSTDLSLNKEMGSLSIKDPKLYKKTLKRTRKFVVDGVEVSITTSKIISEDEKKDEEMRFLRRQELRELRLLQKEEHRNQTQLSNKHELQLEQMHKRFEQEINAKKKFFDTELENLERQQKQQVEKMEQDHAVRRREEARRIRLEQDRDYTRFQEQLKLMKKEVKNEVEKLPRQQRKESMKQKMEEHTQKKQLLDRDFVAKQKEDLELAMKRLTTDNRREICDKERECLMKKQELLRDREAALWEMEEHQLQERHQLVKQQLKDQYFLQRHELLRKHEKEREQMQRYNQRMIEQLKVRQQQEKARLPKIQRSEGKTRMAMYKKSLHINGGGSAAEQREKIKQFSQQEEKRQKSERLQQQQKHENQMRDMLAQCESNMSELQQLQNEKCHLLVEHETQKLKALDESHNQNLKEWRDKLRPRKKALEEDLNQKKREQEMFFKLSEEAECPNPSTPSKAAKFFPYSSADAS

CDK6 CCND1 (human) = CDK6 CCND1 (human) (UniProt Q00534+P24385)
ROS1 (human) = ROS1 (human) (UniProt P08922)
MAP3K9 (human) = MAP3K9 (human) (UniProt P80192)
KIT (human) = KIT (human) (UniProt P10721)
BRSK2 (human) = BRSK2 (human) (UniProt Q8IWQ3)
MAPK10 (human) = MAPK10 (human) (UniProt P53779)

COc1ccc(-c2cnc3c(-c4ccsc4)cnn3c2)cc1
residual activity (MAP3K7 TAB1 (human)): 97.6%
residual activity (CDK1 CCNB1 (human)): 87.2%
residual activity (PAK7 (human)): 78.1%
residual activity (WEE1 (human)): 102%
residual activity (CAMK2B (human)): 88.7%
residual activity (PRKD3 (human)): 100%
residual activity (MAP3K2 (human)): 98.7%
residual activity (MAP3K14 (human)): 106%
residual activity (AURKB (human)): 50.8%
residual activity (DYRK1B (human)): 78.9%
residual activity (ZAP70 (human)): 93.7%
residual activity (CDK9 CCNK (human)): 76.9%
residual activity (PDGFRA (human)): 74.8%
residual activity (EPHA2 (human)): 95.9%
residual activity (MAP3K11 (human)): 51.9%
residual activity (PDPK1 (human)): 96%
residual activity (TEK (human)): 99.1%
residual activity (AKT2 (human)): 93.3%
residual activity (PRKG2 (human)): 92%
residual activity (PRKCZ (human)): 107%
residual activity (MAP3K3 (human)): 99.4%
residual activity (CAMK1 (human)): 104%
residual activity (CAMK2D (human)): 92%
residual activity (CSK (human)): 95.3%
residual activity (SYK (human)): 101%
residual activity (ERBB4 (human)): 94.2%
residual activity (SRMS (human)): 97.4%
residual activity (IKBKE (human)): 85.5%
residual activity (STK4 (human)): 97.3%
residual activity (RAF1 (human)): 95.5%
residual activity (CSNK2A1 (human)): 101%
residual activity (PRKCB1 (human)): 101%
residual activity (AURKC (human)): 75.3%
residual activity (CAMK1G (human)): 100%
residual activity (STK16 (human)): 66.9%
residual activity (STK10 (human)): 81.6%
residual activity (CDK6 CCND1 (human)): 53.4%
residual activity (ROS1 (human)): 98.8%
residual activity (MAP3K9 (human)): 65.6%
residual activity (KIT (human)): 36.2%
residual activity (BRSK2 (human)): 94.1%

CCCNC(=O)Nc1ccc(Oc2ncnc3cc(OC)c(OC)cc23)cc1Cl
residual activity (MAP3K7 TAB1 (human)): 103%
residual activity (CDK1 CCNB1 (human)): 98%
residual activity (PAK7 (human)): 84.5%
residual activity (WEE1 (human)): 92.9%
residual activity (CAMK2B (human)): 94.9%
residual activity (PRKD3 (human)): 93.4%
residual activity (MAP3K2 (human)): 89.5%
residual activity (MAP3K14 (human)): 109%
residual activity (AURKB (human)): 37%
residual activity (DYRK1B (human)): 104%
residual activity (ZAP70 (human)): 102%
residual activity (CDK9 CCNK (human)): 103%
residual activity (PDGFRA (human)): 92.2%
residual activity (EPHA2 (human)): 104%
residual activity (MAP3K11 (human)): 89.2%
residual activity (PDPK1 (human)): 86.8%
residual activity (TEK (human)): 87%
residual activity (AKT2 (human)): 89.7%
residual activity (PRKG2 (human)): 97%
residual activity (PRKCZ (human)): 102%
residual activity (MAPK10 (human)): 100%
residual activity (MAP3K3 (human)): 95.3%
residual activity (CAMK1 (human)): 96.7%
residual activity (CAMK2D (human)): 89.4%
residual activity (CSK (human)): 100%
residual activity (SYK (human)): 97.5%
residual activity (SRMS (human)): 105%
residual activity (IKBKE (human)): 93.5%
residual activity (STK4 (human)): 92.8%
residual activity (RAF1 (human)): 85.4%
residual activity (CSNK2A1 (human)): 105%
residual activity (PRKCB1 (human)): 100%
residual activity (AURKC (human)): 71.6%
residual activity (CAMK1G (human)): 103%
residual activity (STK16 (human)): 93.4%
residual activity (STK10 (human)): 35%
residual activity (CDK6 CCND1 (human)): 92.9%
residual activity (ROS1 (human)): 97.6%
residual activity (MAP3K9 (human)): 88.9%
residual activity (KIT (human)): 39.2%
residual activity (BRSK2 (human)): 96.7%

O=C1Nc2ccccc2/C1=C\c1c(Cl)[nH]c2ccccc12
residual activity (MAP3K7 TAB1 (human)): 99.2%
residual activity (CDK1 CCNB1 (human)): 94.3%
residual activity (WEE1 (human)): 107%
residual activity (CAMK2B (human)): 108%
residual activity (PRKD3 (human)): 87.7%
residual activity (MAP3K2 (human)): 94%
residual activity (MAP3K14 (human)): 92.6%
residual activity (AURKB (human)): 97.9%
residual activity (DYRK1B (human)): 99.3%
residual activity (ZAP70 (human)): 106%
residual activity (CDK9 CCNK (human)): 98.3%
residual activity (PDGFRA (human)): 88.7%
residual activity (EPHA2 (human)): 97.3%
residual activity (MAP3K11 (human)): 100%
residual activity (PDPK1 (human)): 94.3%
residual activity (TEK (human)): 97.1%
residual activity (AKT2 (human)): 96.8%
residual activity (PRKG2 (human)): 71.7%
residual activity (PRKCZ (human)): 103%
residual activity (MAPK10 (human)): 103%
residual activity (MAP3K3 (human)): 112%
residual activity (CAMK1 (human)): 106%
residual activity (CAMK2D (human)): 86.7%
residual activity (CSK (human)): 101%
residual activity (SYK (human)): 102%
residual activity (ERBB4 (human)): 103%
residual activity (SRMS (human)): 84.2%
residual activity (IKBKE (human)): 98%
residual activity (STK4 (human)): 91%
residual activity (RAF1 (human)): 89.9%
residual activity (CSNK2A1 (human)): 89.4%
residual activity (PRKCB1 (human)): 105%
residual activity (AURKC (human)): 89.5%
residual activity (STK16 (human)): 102%
residual activity (STK10 (human)): 90.9%
residual activity (CDK6 CCND1 (human)): 105%
residual activity (ROS1 (human)): 109%
residual activity (MAP3K9 (human)): 97.9%
residual activity (KIT (human)): 90.2%
residual activity (BRSK2 (human)): 96.2%
